Data from patent US20120245201A1, “Isopropylphenidate for Treatment of Attention-Deficit/Hyperactivity Disorder and Fatigue-Related Disorders and Conditions” (priority 2009, published 2012).

Columns and labels:
[1] = test system: DA uptake, synaptosomes prepared from the rat striatum; test: Dopamine uptake into synaptosomes; type: cell-based
Experimental: (§1) Transporter Binding and Cellular Uptake. All described monoamine transporter binding studies as well as cellular uptake assays were performed in duplicate by CEREP (Celle l'Evescault, France) and are described below. Further details of all assays performed may be accessed at the CEREP web site (world-wide-web at cerep.com). Cellular-based assays were conducted to provide complementary in vitro functional measures to complement the standard transporter assays as well as to provide direct comparisons of the homologs IPH with MPH with regard to DA, NE, and 5-HT uptake in synaptosomal preparations.
Dopamine Uptake. The evaluation of the effects of the two compounds on DA uptake again utilized synaptosomes but this time prepared from the rat striatum. […] After incubation, the samples were filtered, counted, and the results expressed as a percent inhibition of the control uptake of [^3H]dopamine by scintillation count. The standard inhibitory reference compound was GBR12909, which was tested in each experiment at several concentrations to obtain an inhibition curve from which its IC50 value was calculated.

[2] = test system: human intestinal microsomes (HIM); test: Hydrolysis to ritalinic acid by human intestinal microsomes; type: in vitro ADME; conditions: 1 mM substrate, 0.2 mg/ml HIM, 37° C., 60 min
Experimental: FIG. 2—Hydrolysis of methylphenidate (MPH) and isopropylphenidate (IPH) by recombinant human CES1, HLM, HIM. After incubation with CES 1 transfected human cells, HLM, and HIM at 37° C. for 60 min, the metabolite RA produced via hydrolysis of MPH and IPH was determined by HPLC. Data are presented as mean±SEM of 3 to 6 independent experiments.
Determination of Relative Hydrolytic Rates of MPH and IPH. The assessment of relative rates of hydrolysis of the two ester compounds utilized both cell culture and human liver microsomes (HLM) and human intestinal microsomes (HIM). The human carboxylesterase 1 (hCES1) s9 fraction was prepared utilizing a novel method developed in the inventors' laboratory previously (Zhu et al., 2008). Hydrolysis of IPH and MPH by hCES1, HLM, and human intestinal microsomes was assessed by incubating the substrates with the respective enzymes and measuring the formation of the major metabolite RA formed via ester hydrolysis. Briefly, 50 μl of freshly prepared substrates (IPH and MPH) was mixed with 50 μl of enzymes in 1.5 ml Eppendorf tubes yielding a total volume of 100 μl. […] Concentrations of the primary hydrolytic product of the two compounds, RA were determined utilizing a validated HPLC method previously described.

[3] = test system: 5-HT uptake, synaptosomes prepared from the rat brain; test: Serotonin uptake into synaptosomes; type: cell-based
Experimental: as §1
Serotonin Uptake. The assessment of the relative effects of IPH and MPH on 5-HT uptake utilized measures of [^3H]5-HT incorporation into synaptosomes prepared from the rat brain. […] Following incubation, the samples were filtered, counted using a scintillation instrument, and the results expressed as a percent inhibition of the control uptake of [^3H]5-HT. The standard inhibitory reference compound was the TCA imipramine, which was tested in each experiment at several concentrations to obtain an inhibition curve from which its IC50 value was calculated.

hCES1 = biological target: T1, hCES1 (Homo sapiens, UniProt P23141); test: Transesterification potential in the presence of ethanol, s9 fraction of hCES1-transfected cells; conditions: for effect of ethanol on formation of the hydrolytic product RA: hCES1 s9; for EPH formation with ethanol when hCES1 was not present: incubation with ethanol, no hCES1
T1 sequence (P23141 18-567): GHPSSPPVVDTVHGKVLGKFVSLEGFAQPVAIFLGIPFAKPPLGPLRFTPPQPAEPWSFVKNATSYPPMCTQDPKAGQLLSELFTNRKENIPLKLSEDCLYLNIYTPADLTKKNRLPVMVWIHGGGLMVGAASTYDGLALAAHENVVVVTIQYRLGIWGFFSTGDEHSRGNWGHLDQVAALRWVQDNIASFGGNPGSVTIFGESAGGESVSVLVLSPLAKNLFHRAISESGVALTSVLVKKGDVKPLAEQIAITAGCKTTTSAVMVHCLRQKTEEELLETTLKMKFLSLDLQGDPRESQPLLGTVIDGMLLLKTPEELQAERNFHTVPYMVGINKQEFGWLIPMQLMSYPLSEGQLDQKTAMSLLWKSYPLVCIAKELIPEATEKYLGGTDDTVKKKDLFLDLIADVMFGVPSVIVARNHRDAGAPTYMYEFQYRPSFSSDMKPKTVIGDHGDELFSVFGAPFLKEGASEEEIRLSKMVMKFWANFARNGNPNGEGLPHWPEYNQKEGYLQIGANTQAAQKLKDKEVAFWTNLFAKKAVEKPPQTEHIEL
Experimental: FIG. 3—Transesterification potential of isopropylphenidate (IPH) versus methylphenidate (MPH) by s9 fractions of CES1 transfected cells in the presence of ethanol. MPH (1 mM) or IPH (1 mM) was incubated with s9 fractions of hCES1 overexpressing cells (2 mg/ml) in the presence or absence of ethanol (10 mM) at 37° C. for 30 min. The transesterification product EPH and hydrolytic metabolite RA were analyzed utilizing established HPLC assays. […] Data are expressed as mean±SEM of three independent experiments.
An In Vitro Investigation of the Transesterification Potential of Isopropylphenidate versus Methylphenidate in the Presence of Ethanol. The s9 fraction of hCES1-transfected cells, d1-MPH), dl-IPH, and ethanol working solution were prepared in DPBS containing 20 mM HEPES, pH7.4. The reaction was initiated by mixing 200 μl of s9 fraction, 100 μl of substrates (MPH or IPH) and 100 μl of ethanol. The final concentrations of s9 fraction protein, MPH, IPH, and ethanol were 2 mg/ml, 1 mM, 1 mM, and 10 mM, respectively. After incubation at 37° C. for 1 h, the reaction was terminated by adding a four-fold concentration of ice-cold methanol. The samples were then centrifuged at 16,000 g for 5 min, and the resulting supernatant was subjected to HPLC analysis to assess each for the formation and/or concentration of the hydrolytic product of both MPH and IPH, and common metabolite RA. Additionally, the samples were assayed for the presence of the transesterification metabolite ethylphenidate (EPH). Further, the s9 fraction prepared from the vector-transfected cells was included in this study as a control for any non-enzymatic hydrolysis which might occur. The hCES1 mediated MPH and IPH hydrolysis was estimated by deducting the amounts of RA produced in the vector s9 samples from the RA formation observed in the hCES1 s9 samples.

Row | SMILES | inhibition at 10 µM ([1]; Rattus norvegicus, read-out: % inhibition of control specific binding, [3H]DA incorporation into synaptosomes) [%] | catalytic activity of HIM on hydrolysis [2] | inhibition at 10 µM ([3]; read-out: % inhibition of control specific binding, [3H]5-HT incorporation into synaptosomes) [%] | effect of ethanol on formation of the hydrolytic product RA (hCES1; 10 mM ethanol) | EPH formation with ethanol when hCES1 was not present (hCES1) | % inhibition of control specific binding; [3H]DA incorporation into synaptosomes ([1]; 10 μM, rat striatum synaptosomes) [%] | % inhibition of control specific binding; [3H]5-HT incorporation into synaptosomes ([3]; 10 μM) [%] | velocity of hCES1-mediated transesterification to EPH (hCES1; 1 mM substrate, 10 mM ethanol, 2 mg/ml s9 protein, 37° C.) [pmole/min/mg protein]
1 | COC(=O)C(c1ccccc1)C1CCCCN1 (racemic) [MPH, dl-threo-methylphenidate, reference compound] | 90 | extremely low | 35 | significantly decreased | no EPH formation was observed | – | – | –
2 | CC(C)OC(=O)C(c1ccccc1)C1CCCCN1 (racemic) [IPH, dl-threo-α-phenyl-2-piperidineacetic acid isopropyl ester] | – | extremely low | – | significantly decreased | no EPH formation was observed | 96 | 28 | 47.5±3.3
